The results in this text go back to publication PMC10108347, “Heterobifunctional Ligase Recruiters Enable pan-Degradation of Inhibitor of Apoptosis Proteins” (Journal of Medicinal Chemistry, 2023).

Values joined by “and” are separate entries in the source; they are usually repeats but may differ in a detail not shown here. Equal values may be shown once. “Also recorded” adds a separate entry of the source. Read-outs that look alike come from different tables or passages of the source.

One series concerns MOLM13. Description: CellTiter-Glo cell viability assay, MOLM13. As to conditions: Homo sapiens. It counts as cell-based. As for the experimental part:
(§1) As TNF-α and related signaling cascades represent crucial factors for the single-agent activity of IAP-targeting compounds,[29],[38],[39],[55] the viability inhibition of sensitive cell lines was evaluated in the presence and absence of this inflammatory stimulus. […] These effects were independent of IAP baseline levels (Figure S16), which is in agreement with the previous studies of IAP antagonists.
(§2) Cells were seeded in 384-well plates with respective treatments, and plates were incubated at 37 °C for 96 h. Viability assays were performed with or without the addition of TNF-α at 1 ng/mL. The cell viability readout was measured using the CellTiter-Glo Luminescent Cell Viability Assay (Promega, Madison, USA) and measured with a Synergy LX Multi-Mode plate reader (BioTek, Vermont, USA). All conditions were normalized to the DMSO-treated control. Data represents the mean ± SD of biological triplicates.
Background: In ATP-based viability assays light output follows the ATP content of the culture.

In a further series the test system is K562. Description: CellTiter-Glo cell viability assay, K562. It counts as cell-based. The following applies: Homo sapiens. As for the experimental part: as §1, §2
The test system of a further series is NCI-H929. The series is described as follows: CellTiter-Glo cell viability assay, NCI-H929. In kind it is cell-based. The following applies: Homo sapiens. As for the experimental part:
as §1, §2

The target in the next series is cIAP2 (Homo sapiens, UniProt Q13489). Description: Immunoblotting (western blot) quantification of cIAP2 levels in MM.1S cells. The following applies: MM1.S, 16 h, read-out: %remaining protein cIAP2, MM.1S cells, 16 h treatment at 0.1 μM, normalized to loading control and DMSO. (Immunoblotting shows a protein as a band on a membrane.)
The test system of another series is MM.1S cells proteome. The series is described as follows: diaPASEF quantitative proteomics in MM.1S cells: proteome-wide degradation selectivity (other proteins). In kind it is cell-based, human. The following applies: per-replicate values (rep1, rep2). As for the experimental part: To analyze the proteome-wide degradation selectivity of hetero-PROTACs 9, 25, and 27, a diaPASEF-based mass spectrometry approach was employed.[54] MM.1S cells were treated with 100 nM PROTACs for 3 h. […] Accordingly, global proteomic plots show the mathematically imputed levels of IAP proteins in treatment groups if the corresponding IAP was detected in the control treatment (see also Experimental Section).
MM1s cells were treated with DMSO or 0.1 μM of compound for 3 h. The cells were harvested by centrifugation and washed with phosphate-buffered saline before snap-freezing in liquid nitrogen. The cells were lysed by addition of lysis buffer (8 M urea, 50 mM NaCl, 50 mM 4-(2-hydroxyethyl)-1-piperazine-ethanesulfonic acid (EPPS) pH 8.5, protease, and phosphatase inhibitors) and homogenization by bead beating (BioSpec) for three repeats of 30 s at 2400. Bradford assay was used to determine the final protein concentration in the clarified cell lysate. 50 μg of protein for each sample was reduced, alkylated, and precipitated using methanol/chloroform as previously described,[64] and the resulting washed precipitated protein was allowed to air dry. The precipitated protein was resuspended in 4 M urea, 50 mM HEPES pH 7.4, followed by dilution to 1 M urea with the addition of 200 mM EPPS, pH 8. […] The LysC digestion was diluted to 0.5 M urea with 200 mM EPPS pH 8, followed by digestion with trypsin (1:50; enzyme/protein) for 6 h at 37 °C. Sample digests were acidified with formic acid to a pH of 2–3 prior to desalting using C18 solid-phase extraction plates (SOLA, Thermo Fisher Scientific). Desalted peptides were dried in a vacuum centrifuge and reconstituted in 0.1% formic acid for LC–MS analysis.
Data were collected using a TimsTOF Pro2 (Bruker Daltonics, Bremen, Germany) coupled to a nanoElute LC pump (Bruker Daltonics, Bremen, Germany) via a CaptiveSpray nanoelectrospray source. […] Peptides were separated using a 50 min gradient of 2–30% buffer B (acetonitrile in 0.1% formic acid) with a flow rate of 250 nL/min and column temperature maintained at 50 °C.
Data-Dependent Acquisition (DDA) was performed in the Parallel Accumulation-Serial Fragmentation (PASEF) mode to determine effective ion mobility windows for downstream diaPASEF data collection.[54] The diaPASEF parameters included 100% duty cycle using accumulation and ramp times of 50 ms each, 1 TIMS-MS scan, and 10 PASEF ramps per acquisition cycle. The TIMS-MS survey scan was acquired between 100–1700 m/z and 1/K0 of 0.7–1.3 V × s/cm^2. Precursors with 1–5 charges were selected, and those that reached an intensity threshold of 20,000 arbitrary units were actively excluded for 0.4 min. The quadrupole isolation width was set to 2 m/z for m/z < 700 and 3 m/z for m/z > 800, with the m/z between 700 and 800 m/z being interpolated linearly. […] To perform diaPASEF, the precursor distribution in the DDA m/z-ion mobility plane was used to design an acquisition scheme for DIA data collection, which included two windows in each 50 ms diaPASEF scan. Data was acquired using 16 of these 25 Da precursor double window scans (creating 32 windows), which covered the diagonal scan line for doubly and triply charged precursors, with singly charged precursors able to be excluded by their position in the m/z-ion mobility plane. These precursor isolation windows were defined between 400–1200 m/z and 1/K0 of 0.7–1.3 V × s/cm^2.
The diaPASEF raw file processing and controlling peptide and protein level false discovery rates, assembling proteins from peptides, and protein quantification from peptides were performed using library-free analysis in DIA-NN 1.8.[65] The library-free mode performs an in silico digestion of a given protein sequence database alongside deep learning-based predictions to extract the DIA precursor data into a collection of MS^2 spectra.

A further series has as its system RPMI-8826. The series is described as follows: CellTiter-Glo cell viability assay, RPMI-8826. In kind it is cell-based. As for the experimental part: as §1, §2
For a further series, the system named is SUDHL6. The series is described as follows: CellTiter-Glo cell viability assay, SUDHL6. In kind it is cell-based. As to conditions: Homo sapiens. As for the experimental part:
as §1, §2

The target of a further series is XIAP (Homo sapiens, UniProt P98170). The series is described as follows: Immunoblotting (western blot) quantification of XIAP levels in MM.1S cells. The following applies: MM1.S, 16 h, read-out: %remaining protein XIAP, MM.1S cells, 16 h treatment at 0.1 μM, normalized to loading control and DMSO.
For a further series, the system named is HEL. The series is described as follows: CellTiter-Glo cell viability assay, HEL. In kind it is cell-based. The following applies: Homo sapiens, HEL. As for the experimental part:
as §1, §2

The subject of a further series is DB. Description: CellTiter-Glo cell viability assay, DB. In kind it is cell-based. The following applies: Homo sapiens, DB. As for the experimental part:
as §1, §2

A further series concerns IKZF3. The series is described as follows: Immunoblotting (western blot) quantification of IKZF3 levels in MM.1S cells. The following applies: 16 h treatment at 0.1 μM, normalized to loading control and DMSO.
The test system of a further series is JJN3. The series is described as follows: CellTiter-Glo cell viability assay, JJN3. In kind it is cell-based. As to conditions: Homo sapiens. As for the experimental part: as §1, §2
A further series deals with SUDHL4. The series is described as follows: CellTiter-Glo cell viability assay, SUDHL4. In kind it is cell-based. The following applies: Homo sapiens. As for the experimental part: as §1, §2
The nature of series [1]: Log D7.4 measurement by chromatographic (fast-gradient HPLC) method. The following applies: pH 7.4.
Protocol: The system was calibrated by plotting the retention times of six different drugs (atenolol, metoprolol, labetalol, diltiazem, triphenylene, and permethrin) versus their literature-known log D7.4 in a calibration line (R^2 = 0.99). Subsequently, the mean retention times of the analytes were taken to calculate their log D7.4 values with the aid of the calibration line. At least two independent measurements of each analyte were performed.
The subject of series [2] is IAPs (cIAP1, cIAP2, XIAP). Description: Immunoblotting of IAPs in MM.1S cells, overall degradation profile, time course and washout. It counts as cell-based. The following applies: 16 h, western blot, concentration (10 nM to 1 μM). As for the experimental part:
Next, we examined the persistence of IAP degradation in MM.1S cells after a single exposure to 1 μM of 9 and subsequent removal of the compound. […] The reliance on CRL2^VHL was assessed with a neddylation inhibitor MLN4924, which blocks the activity of CRLs (Figure S13A).

What is called chromatographic logD is a lipophilicity value derived from retention on a column. Read a low chromatographic logD as lower lipophilicity.

XIAP, sequence (P98170 whole entry): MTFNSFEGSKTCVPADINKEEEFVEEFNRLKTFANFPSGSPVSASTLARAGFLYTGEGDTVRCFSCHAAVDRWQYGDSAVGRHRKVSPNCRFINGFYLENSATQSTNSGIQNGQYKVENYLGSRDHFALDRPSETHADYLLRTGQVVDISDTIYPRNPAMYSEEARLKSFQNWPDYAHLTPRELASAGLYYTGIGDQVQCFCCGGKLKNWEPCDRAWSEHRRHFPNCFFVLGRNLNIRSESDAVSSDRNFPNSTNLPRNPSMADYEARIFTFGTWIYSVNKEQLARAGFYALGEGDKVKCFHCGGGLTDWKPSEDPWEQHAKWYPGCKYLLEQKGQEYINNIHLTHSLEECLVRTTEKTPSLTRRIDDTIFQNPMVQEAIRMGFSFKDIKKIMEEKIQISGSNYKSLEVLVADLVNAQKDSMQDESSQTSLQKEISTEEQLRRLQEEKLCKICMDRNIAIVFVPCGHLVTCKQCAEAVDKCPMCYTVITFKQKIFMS
cIAP2, sequence (Q13489 whole entry): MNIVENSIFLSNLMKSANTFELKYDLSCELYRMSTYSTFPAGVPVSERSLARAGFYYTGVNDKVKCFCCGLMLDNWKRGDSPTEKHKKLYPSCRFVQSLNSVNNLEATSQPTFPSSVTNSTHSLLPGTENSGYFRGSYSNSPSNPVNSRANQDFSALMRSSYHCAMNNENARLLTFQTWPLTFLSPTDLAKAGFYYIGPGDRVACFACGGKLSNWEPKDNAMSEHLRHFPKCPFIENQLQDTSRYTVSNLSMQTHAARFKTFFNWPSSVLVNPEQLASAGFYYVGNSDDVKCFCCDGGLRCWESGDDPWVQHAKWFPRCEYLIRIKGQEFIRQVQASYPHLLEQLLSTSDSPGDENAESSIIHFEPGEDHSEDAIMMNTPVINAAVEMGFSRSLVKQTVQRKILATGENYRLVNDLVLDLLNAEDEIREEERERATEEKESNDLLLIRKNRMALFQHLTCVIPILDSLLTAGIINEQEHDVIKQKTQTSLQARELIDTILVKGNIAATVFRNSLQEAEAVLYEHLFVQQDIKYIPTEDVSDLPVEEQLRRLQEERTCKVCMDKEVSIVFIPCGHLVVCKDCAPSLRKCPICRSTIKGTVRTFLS
Protocol for IKZF3: To evaluate the capability of our panel of hetero-PROTACs for E3 ligase degradation, VHL19, VHL30, CRBN, cIAP1, cIAP2, and XIAP levels were quantified by western blot analyses. […] SDS-PAGE was performed, and proteins were then transferred onto PVDF membranes. Blotted membranes were blocked with 5% milk in Tris-buffered saline/Tween20 (TBST). Primary antibodies were diluted in 5% BSA in TBST, and incubations were performed overnight at 4 °C. Secondary HRP-conjugated antibodies diluted in 5% milk were incubated for 1 h at room temperature. Detection of proteins on PVDF was carried out using the WesternBright ECL HRP substrate or the WesternBright Sirius HRP substrate (Advansta, San Jose, USA) and imaged with LAS 4000× (Fujifilm). Membranes were subjected to 10 min incubation with Restore Western Blot Stripping Buffer (Thermo Fisher Scientific, Waltham, USA), followed by TBST washes. After brief re-activation with methanol, the membranes were blocked, and further probing of proteins was carried out.
Quantification of blots was performed using ImageJ software (National Institutes of Health).

Take `Nc1cccc2c1C(=O)N(C1CCC(=O)NC1=O)C2=O` (stereo not drawn) [POM, pomalidomide, reference compound]: the IC50 was above 10 µM in the series on MOLM13 (MOLM-13, read-out: MOLM13); above 10 µM in the series with K562 (K562, read-out: K562); above 10 µM with NCI-H929 (NCI-H929, read-out: NCI-H929); above 10 µM with RPMI-8826 (read-out: RPMI-8826); above 10 µM in the series on SUDHL6 (SU-DHL-6, read-out: SUDHL6); above 10 µM in the series on HEL (read-out: HEL). Also, the IC50 with DB (read-out: DB) was above 10 µM; in the series with JJN3 (JJN-3, read-out: JJN3), 0.042 µM; with SUDHL4 (SU-DHL-4, read-out: SUDHL4) it was above 10 µM. For the same compound, the remaining activity at 0.1 µM on cIAP2 and on XIAP was 95% throughout. Further, the “Precursor intensity (DIA-NN), CLPX precursor AAAAADLANR2” value in the series with MM.1S cells proteome (CLPX_HUMAN (O76031), ATP-dependent Clp protease ATP-binding subunit clpX-like, mitochondrial, precursor charge 2) was 24680.8 and 25422.9. The “Precursor intensity (DIA-NN), RPL4 precursor AAAAAAALQAK1” value with MM.1S cells proteome (RL4_HUMAN (P36578), 60S ribosomal protein L4, precursor charge 1) is recorded as 763.617. Further, the “Precursor intensity (DIA-NN), RPL4 precursor AAAAAAALQAK2” value with MM.1S cells proteome (RL4_HUMAN (P36578), 60S ribosomal protein L4, precursor charge 2) was 420512 and 433546. In addition, the “Precursor intensity (DIA-NN), SAMD1 precursor AAAAAATAPPSPGPAQPGPR2” value with MM.1S cells proteome (SAMD1_HUMAN (Q6SPF0), Atherin, precursor charge 2) is 19530.8 and 11746.1. In addition, in the series with MM.1S cells proteome (ZFP91_HUMAN (Q96JP5), E3 ubiquitin-protein ligase ZFP91, precursor charge 2), the “Precursor intensity (DIA-NN), ZFP91 precursor AAAAAAAAAVSR2” value is 26049.6 and 28242.6. Also, the “%remaining protein IKZF3” value in the series with IKZF3 is 14%.

As for `CN[C@@H](C)C(=O)N[C@H](C(=O)N1C[C@@H](Oc2cccc(OCCCCC(=O)N[C@H](C(=O)N3C[C@@H](O)C[C@H]3C(=O)NCc3ccc(-c4scnc4C)cc3)C(C)(C)C)c2)C[C@H]1C(=O)N[C@@H]1CCCc2ccccc21)C1CCCCC1` [PROTAC 11, (2S,4S)-1-((S)-2-Cyclohexyl-2-((S)-2-(methylamino)propanamido)acetyl)-4-(3-((5-(((S)-1-((2S,4S)-4-hydroxy-2-((4-(4-methylthiazol-5-yl)benzyl)carbamoyl)pyrrolidin-1-yl)-3,3-dimethyl-1-oxobutan-2-yl)amino)-5-oxopentyl)oxy)phenoxy)-N-((R)-1,2,3,4-tetrahydronaphthalen-1-yl)pyrrolidine-2-carboxamide], the IC50 in the series on MOLM13 (MOLM-13, AML cell line, 96 h, TNFα-challenged, read-out: IC50 cell viability MOLM13) was above 1 µM; in the series with K562 (K562, AML cell line, 96 h, TNFα-challenged, read-out: IC50 cell viability K562) it was above 5 µM; with K562 (SI csv, head prints only the cell line, no quantity or unit, values parallel Table 1/S8, read-out: K562), above 10 µM; in the series on NCI-H929 (NCI-H929, MM cell line, 96 h, TNFα-challenged, read-out: IC50 cell viability NCI-H929), above 5 µM; with NCI-H929 (SI csv, head prints only the cell line, no quantity or unit, values parallel Table 1/S8, read-out: NCI-H929), above 10 µM; in the series with RPMI-8826 (MM cell line, 96 h, TNFα-challenged, read-out: IC50 cell viability RPMI-8826), above 5 µM. Besides, the IC50 in the series on RPMI-8826 (SI csv, head prints only the cell line, no quantity or unit, values parallel Table 1/S8, read-out: RPMI-8826) was above 10 µM; in the series with SUDHL6 (SU-DHL-6, DLBCL cell line, 96 h, TNFα-challenged, read-out: IC50 cell viability SUDHL6), 0.17 µM; with HEL (AML cell line, 96 h, TNFα-challenged, read-out: IC50 cell viability HEL) it was above 10 µM; with DB (DLBCL cell line, 96 h, TNFα-challenged, read-out: IC50 cell viability DB), above 5 µM; with JJN3 (JJN-3, MM cell line, 96 h, TNFα-challenged, read-out: IC50 cell viability JJN3), above 5 µM; with JJN3 (JJN-3, SI csv, head prints only the cell line, no quantity or unit, values parallel Table 1/S8, read-out: JJN3), above 10 µM. Moreover, the IC50 in the series with SUDHL4 (SU-DHL-4, DLBCL cell line, 96 h, TNFα-challenged, read-out: IC50 cell viability SUDHL4) is above 5 µM; in the series on SUDHL4 (SU-DHL-4, SI csv, head prints only the cell line, no quantity or unit, values parallel Table 1/S8, read-out: SUDHL4), above 10 µM. In series [1], this compound yielded a chromatographic logD of 3.3. Besides, the “IAP degradation profile (in words)” value in series [2] is on record as “induce only cIAP1 degradation; also recorded: only induced cIAP1 degradation”.
